ChEMBL document CHEMBL1201862, “PubChem BioAssay data set” (2004)
Where “and” joins values, the source holds several entries; their conditions need not be identical. Equal entries are not always repeated.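 How tested: cells in 96-well plates exposed to compound for 48 hours at five concentrations. GI50 = concentration required for 50% inhibition of growth.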 Calls of active or inactive are those of the source. Cut-off read from the data, not from the text of the source: active = GI50 up to about 1.1 µM and inactive = higher.

Columns and labels:
Assay in all cases: growth of human tumour cells (NCI), 48 h
MDA-MB-435 = tested on: MDA-MB-435
ACHN = tested on: ACHN
OVCAR-5 = tested on: OVCAR-5
NCI-H226 = tested on: NCI-H226
SF-295 = tested on: SF-295
Hs-578T = tested on: Hs-578T
Malme-3M = tested on: Malme-3M
HT-29 = tested on: HT-29
M14 = tested on: M14
SN12C = tested on: SN12C
SK-MEL-28 = tested on: SK-MEL-28
A549 = tested on: A549
COLO 205 = tested on: COLO 205
NCI-H23 = tested on: NCI-H23
UO-31 = tested on: UO-31
CAKI-1 = tested on: CAKI-1
DU-145 = tested on: DU-145
A498 = tested on: A498
MCF7 = tested on: MCF7
KM12 = tested on: KM12
SF-268 = tested on: SF-268
K562 = tested on: K562
UACC-257 = tested on: UACC-257
SF-539 = tested on: SF-539
OVCAR-8 = tested on: OVCAR-8
U-251 = tested on: U-251
MDA-MB-231 = tested on: MDA-MB-231
MOLT-4 = tested on: MOLT-4
IGROV-1 = tested on: IGROV-1
SK-MEL-5 = tested on: SK-MEL-5
SK-MEL-2 = tested on: SK-MEL-2
SNB-19 = tested on: SNB-19
CCRF-CEM = tested on: CCRF-CEM
LOX IMVI = tested on: LOX IMVI
SR = tested on: SR
SW-620 = tested on: SW-620
EKVX = tested on: EKVX
HCT-116 = tested on: HCT-116
OVCAR-4 = tested on: OVCAR-4
PC-3 = tested on: PC-3
RPMI-8226 = tested on: RPMI-8226
TK-10 = tested on: TK-10
HOP-92 = tested on: HOP-92
UACC-62 = tested on: UACC-62
786-0 = tested on: 786-0
HL-60 = tested on: HL-60
MDA-N = tested on: MDA-N
NCI/ADR-RES = tested on: NCI/ADR-RES

Measured: GI50

CC1=CC(=O)CC2(C)CCC(C(C)CC(=O)CC(C)C)CC12OO (stereo not drawn)
inactive: MDA-MB-435 17.5 µM and 18.3 µM | ACHN 17.6 µM and 17.1 µM | OVCAR-5 19.9 µM and 19.4 µM | NCI-H226 18.3 µM and 18.7 µM | SF-295 16.4 µM and 17 µM | Hs-578T 46.9 µM and 28.4 µM | Malme-3M 29.8 µM and 16.7 µM | HT-29 17 µM and 20.7 µM | M14 16.5 µM and 17.9 µM | SN12C 17.6 µM and 18.7 µM | SK-MEL-28 18.5 µM and 15.2 µM | A549 16.7 µM and 15.4 µM | COLO 205 18.8 µM and 14.3 µM | NCI-H23 16.5 µM and 19.9 µM | UO-31 19.9 µM and 16.2 µM | CAKI-1 19.3 µM | DU-145 18 µM and 16 µM | A498 22.4 µM and 16.9 µM | MCF7 16.9 µM and 17.2 µM | KM12 15.6 µM and 16.9 µM | SF-268 17 µM and 20 µM | K562 10.9 µM and 5.53 µM | UACC-257 17.7 µM and 17.3 µM | SF-539 16.4 µM and 15.2 µM | OVCAR-8 19.2 µM and 27.7 µM | U-251 19 µM and 17.6 µM | MDA-MB-231 15.1 µM and 18.5 µM | MOLT-4 14.8 µM and 15.8 µM | IGROV-1 15 µM and 20 µM | SK-MEL-5 15.7 µM and 21 µM | SK-MEL-2 16.9 µM and 20.2 µM | SNB-19 > 100 µM and 95.5 µM | CCRF-CEM 20.7 µM and 19.6 µM | LOX IMVI 14.6 µM and 16.4 µM | SR 18.5 µM and 20.6 µM | SW-620 19 µM and 17.3 µM | EKVX 17.9 µM and 19.9 µM | HCT-116 16.2 µM and 16.1 µM | OVCAR-4 27.7 µM and 16 µM | PC-3 14.3 µM and 15.7 µM | RPMI-8226 16.6 µM and 12.5 µM | TK-10 19.3 µM and 18.7 µM | HOP-92 15.9 µM and 18 µM | UACC-62 20.8 µM and 17.6 µM | 786-0 10.1 µM and 13.1 µM | HL-60 1.83 µM and 1.87 µM | MDA-N 18.8 µM and 18.1 µM | NCI/ADR-RES 24.8 µM and 23.1 µM
